The Deep4Chem optical property database
Values joined by “and” are separate entries in the source; they are usually repeats but may differ in a detail not shown here. Identical values can stand only once. One block for each compound: values may come before it.

Assay: solvent given as SMILES
[1] = in O=P(c1ccccc1)(c1ccccc1)c1ccc2oc3ccc(P(=O)(c4ccccc4)c4ccccc4)cc3c2c1

fluorescence lifetime (in O): 4.2 ns
SMILES: O=S(=O)([O-])c1cc(S(=O)(=O)Cl)ccc1C1=c2cc3c4c(c2Oc2c1cc1c5c2CCCN5CCC1)CCC[N+]=4CCC3

fluorescence lifetime (in ClCCl): 3.6 ns
SMILES: CCOC(=O)/N=c1/oc2cc(N(CC)CC)ccc2cc1C#N

fluorescence lifetime (in ClC(Cl)Cl): 6.8 ns
SMILES: COc1ccc2c(-c3nc(-c4cccc(Br)c4)no3)cc(=O)oc2c1

fluorescence lifetime (in O): 4.3 ns
SMILES: CC[n+]1nc2cc3c(cc2c2cc(C)ccc21)N(C)CCC3

fluorescence lifetime (in ClCCl): 15.6 ns
SMILES: CCOC(=O)CCCCCn1c2ccc(N)cc2c(=O)c2cc3c(cc21)c(=O)c1cc(N)ccc1n3CCCCCC(=O)OCC

fluorescence lifetime (in ClCCl): 0.8 ns
SMILES: CCOC(=O)/N=c1/oc2cc(OC)ccc2cc1C#N

fluorescence lifetime (in CC#N): 5.25 ns
fluorescence lifetime (in CC(C)O): 4.36 ns
fluorescence lifetime (in CCCCCCCCO): 4.17 ns
fluorescence lifetime (in CCCCCCO): 4.27 ns
fluorescence lifetime (in CCCCO): 4.3 ns
fluorescence lifetime (in CCCO): 4.3 ns
fluorescence lifetime (in CCO): 4.74 ns
fluorescence lifetime (in CN(C)C=O): 4.78 ns
fluorescence lifetime (in CO): 4.59 ns
fluorescence lifetime (in O): 4.91 ns
fluorescence lifetime (in [2H]O[2H]): 4.8 ns
SMILES: O=C([O-])c1ccccc1C1=c2cc3c4c(c2Oc2c1cc1c5c2CCCN5CCC1)CCC[N+]=4CCC3

fluorescence lifetime (in CO): 0.43 ns
fluorescence lifetime (in ClC(Cl)Cl): 2.14 ns
SMILES: CC[n+]1c(C=C2C(=O)C(C=C3N(C)c4ccc(Cl)cc4C3(C)C)=C2[O-])[se]c2ccccc21

fluorescence lifetime (in ClCCl): 2.8 ns
SMILES: CCOC(=O)c1ccc(C2=Cc3cc4ccccc4cc3P2(=O)c2ccccc2)cc1 (stereo unspecified)

fluorescence lifetime (in C1CCOC1): 12.4 ns and 20.8 ns
fluorescence lifetime (in C1COCCO1): 15 ns
fluorescence lifetime (in CC#N): 14 ns
fluorescence lifetime (in CCO): 10 ns
fluorescence lifetime (in CN(C)C=O): 22 ns
SMILES: Nc1ccc2c(c1)C(=O)NC2=O

fluorescence lifetime (in ClC(Cl)Cl): 3.88 ns
SMILES: CCCCCCN1C(=O)c2cccc3c(-c4ccc(OC)s4)ccc(c23)C1=O

fluorescence lifetime (in C1CCCCC1): 2.6 ns
fluorescence lifetime (in CCOC(C)=O): 0.72 ns
SMILES: CC1=[N+]2C(=C(c3ccc(N(c4ccccc4)c4ccccc4)cc3)c3ccc(C)n3[B-]2(F)F)C=C1c1cc2n(c1)[B-](F)(F)[N+]1=CC=CC1=C2c1c(C)cc(C)cc1C

fluorescence lifetime (in ClCCl): 0.16 ns
SMILES: CCN(CC)c1ccc2c(-c3ccccc3C(=O)O)c3c([o+]c2c1)/C(=C/c1ccc(N2CCCC2)s1)CCC3

fluorescence lifetime (in C1CCCCC1): 10.7 ns
fluorescence lifetime (in CC#N): 1.8 ns
SMILES: COc1cccc2c1-c1ccccc1C2=O

fluorescence lifetime (in C1CCCCC1): 0.84 ns
fluorescence lifetime (in CC#N): 1.07 ns
fluorescence lifetime (in CO): 1.43 ns
SMILES: Cc1cc(C)c(C)c(-c2ccc3cc(C)c(=O)oc3c2)c1C

fluorescence lifetime (in ClCCl): 3.4 ns
SMILES: Cc1cc(-c2ccc(-c3ccccc3)cc2)cc(C)[o+]1

fluorescence lifetime (in CC#N): 2.48 ns
SMILES: O=c1oc2ccccc2cc1/C=C/c1ccccc1

fluorescence lifetime (in ClCCl): 9.47 ns
SMILES: O=c1oc2ccccc2cc1-c1ccc(-c2ccc(-c3cc4ccccc4oc3=O)cc2)cc1

fluorescence lifetime (in C1CCOC1): 4.8 ns
SMILES: COc1ccc(-c2cnc3nn4ccccc4c3c2)cc1

fluorescence lifetime (in C1CCCCC1): 3.1 ns
fluorescence lifetime (in c1ccccc1): 0.63 ns
SMILES: CNc1ccc2c(c1)C(=O)c1ccccc1-2

fluorescence lifetime (in ClCCl): 1.48 ns
SMILES: FC(F)(F)c1ccc(-c2ccc(-c3cc(-c4ccccn4)nc(-c4ccccn4)c3)cc2)cc1

fluorescence lifetime (in ClCCl): 0.86 ns
SMILES: O=C1c2ccccc2C2=Nc3cccc4cccc(c34)N12

fluorescence lifetime (in CO): 0.33 ns
fluorescence lifetime (in ClC(Cl)Cl): 0.18 ns
SMILES: Cc1cc(C)cc(NC(=O)c2sc(Br)nc2C)c1

fluorescence lifetime (in ClCCl): 7.3 ns
SMILES: OCCSc1cccc2[n+]1[B-](F)(F)n1c(c3cccc4cccc1c43)=N2

fluorescence lifetime (in CC#N): 23.2 ns
fluorescence lifetime (in CO): 20.7 ns
fluorescence lifetime (in ClCCl): 21.8 ns
fluorescence lifetime (in OCC(O)CO): 19.7 ns
SMILES: CCCn1c2cccc3oc4cccc5oc6cccc1c6[c+](c45)c32

fluorescence lifetime (in CCO): 18 ns
SMILES: Cc1cc2cc3cc(C)c(C)cc3cc2cn1

fluorescence lifetime (in ClCCl): 2.15 ns
SMILES: COC(=O)c1cc(=O)n(C)c2cc(-c3ccc4c(c3)OCCO4)sc12

fluorescence lifetime (in CCO): 0.25 ns
fluorescence lifetime (in ClCCl): 0.4 ns
SMILES: N#Cc1cnc(-c2c3ccccc3c(-c3ccccc3)c3ccccc23)nc1

fluorescence lifetime (in C1CCOC1): 1.72 ns
SMILES: C(=C\c1cc2ccccc2c2ccccc12)/c1cc2ccccc2c2ccccc12

Continued, compound first:

SMILES: CC1(C)c2ccccc2N(c2ccc(S(=O)(=O)c3ccc(N4c5ccccc5C(C)(C)c5ccccc54)cc3)cc2)c2ccccc21
fluorescence lifetime (in C1COCCO1): 21 ns
fluorescence lifetime (in CC(C)=O): 20 ns
fluorescence lifetime (in Cc1ccccc1): 20 ns
fluorescence lifetime (in ClC(Cl)Cl): 21 ns
fluorescence lifetime (in c1cc(-n2c3ccccc3c3ccccc32)cc(-n2c3ccccc3c3ccccc32)c1): 21 ns

SMILES: CC1(C)CC(/C=C/c2ccc(-n3ccnc3)cc2)=CC(=C(C#N)C#N)C1
fluorescence lifetime (in CCO): 0.03 ns

SMILES: C[Si](C)(C)C#Cc1cc2ccc3cc(C#C[Si](C)(C)C)cc4ccc(c1)c2c34
fluorescence lifetime (in Cc1ccccc1): 99 ns

SMILES: C#CCN1C(=O)/C(=C/c2cc(OC(C)C)ccc2OC(C)C)N=C1C
fluorescence lifetime (in C1COCCO1): 1.66 ns
fluorescence lifetime (in CC#N): 2.22 ns
fluorescence lifetime (in CC(C)=O): 2.17 ns
fluorescence lifetime (in CCCCCC): 0.89 ns
fluorescence lifetime (in CCCCO): 0.82 ns
fluorescence lifetime (in CCCO): 0.85 ns
fluorescence lifetime (in CCO): 1 ns
fluorescence lifetime (in CCOC(C)=O): 1.5 ns
fluorescence lifetime (in CN(C)C=O): 2.62 ns
fluorescence lifetime (in CO): 1.1 ns
fluorescence lifetime (in CS(C)=O): 3.03 ns

SMILES: CC1(C)C(/C=C/C2=C(Oc3ccc(CCN=C=S)cc3I)C(=C/C=C3/N(CCCS(=O)(=O)[O-])c4ccccc4C3(C)C)/CCC2)=[N+](CCCS(=O)(=O)[O-])c2ccccc21
fluorescence lifetime (in CO): 0.947 ns

SMILES: COc1ccc(/C=C/C2=CC(/C=C/c3ccc(OC)c4ccccc34)=[O+][B-](F)(F)O2)c2ccccc12
fluorescence lifetime (in CC#N): 0.65 ns
fluorescence lifetime (in CC(C)=O): 1.03 ns
fluorescence lifetime (in CCOC(C)=O): 1.51 ns
fluorescence lifetime (in CCOCC): 1.34 ns
fluorescence lifetime (in ClC(Cl)(Cl)Cl): 1.18 ns
fluorescence lifetime (in ClCCl): 1.96 ns

SMILES: Nc1ccc(N2C(=O)c3ccc4c5ccc6c7c(ccc(c8ccc(c3c48)C2=O)c75)C(=O)N(c2ccc(O)cc2)C6=O)cc1
fluorescence lifetime (in CN(C)C=O): 3.1 ns

SMILES: c1ccc(-n2c(-c3ccc(N(c4ccc(-c5ccc(N(c6ccc(-c7nc8c9ccccc9c9ccccc9c8n7-c7ccccc7)cc6)c6ccc(-c7nc8c9ccccc9c9ccccc9c8n7-c7ccccc7)cc6)cc5)cc4)c4ccc(-c5nc6c7ccccc7c7ccccc7c6n5-c5ccccc5)cc4)cc3)nc3c4ccccc4c4ccccc4c32)cc1
fluorescence lifetime (in ClCCl): 1.68 ns

SMILES: CCc1c(C)[nH]c(C2=[N+]3C(=Cc4c(C)cc(C)n4[B-]3(F)F)c3ccccc32)c1C
fluorescence lifetime (in C1CCOC1): 4.41 ns
fluorescence lifetime (in CC#N): 5.55 ns
fluorescence lifetime (in CCCCCC): 7.03 ns
fluorescence lifetime (in CO): 5.6 ns
fluorescence lifetime (in Cc1ccccc1): 5.9 ns
fluorescence lifetime (in ClCCl): 4.93 ns

SMILES: Nc1ccc(N2C(=O)c3ccc4c5ccc6c7c(ccc(c8ccc(c3c48)C2=O)c75)C(=O)NC6=O)cc1
fluorescence lifetime (in CN(C)C=O): 2.9 ns

SMILES: Nc1ccccc1
fluorescence lifetime (in C1CCCCC1): 3.4 ns

SMILES: CCN(CC)c1ccc2c(C(F)(F)F)cc(=O)oc2c1
fluorescence lifetime (in C1CCCCC1): 4.1 ns
fluorescence lifetime (in CC#N): 0.6 ns
fluorescence lifetime (in CCO): 0.85 ns
fluorescence lifetime (in CCOC(C)=O): 4.6 ns
fluorescence lifetime (in OCC(O)CO): 2.7 ns

SMILES: N#Cc1nc2c3ccc(-n4c5ccccc5c5ccccc54)cc3c3cc(-n4c5ccccc5c5ccccc54)ccc3c2nc1C#N
fluorescence lifetime (in O=P(c1ccccc1)(c1ccccc1)c1cccc(-c2cc(-n3c4ccccc4c4ccccc43)cc(-n3c4ccccc4c4ccccc43)c2)n1): 29.5 ns

SMILES: c1ccc(-c2nc(-c3ccccc3)nc(-c3cc(-n4c5ccccc5c5ccccc54)c(-n4c5ccccc5c5ccccc54)c(-n4c5ccccc5c5ccccc54)c3)n2)cc1
fluorescence lifetime [1]: 13.1 ns

SMILES: CCCCCCCCN1C(=O)c2ccc3c4c(-c5ccc(-n6c7ccccc7c7ccccc76)cc5)cc5c6c(cc(-c7ccc(-n8c9ccccc9c9ccccc98)cc7)c(c7ccc(c2c37)C1=O)c64)C(=O)N(CCCCCCCC)C5=O
fluorescence lifetime (in ClC(Cl)Cl): 3.3 ns

SMILES: CCc1ccc(/C=C/c2ccc(-c3nnc(-c4ccc(-c5cc6ccccc6s5)cc4)o3)cc2)cc1
fluorescence lifetime (in Cc1ccccc1): 0.56 ns
fluorescence lifetime (in ClC(Cl)Cl): 0.61 ns

SMILES: N#Cc1ccc(/C2=C3N=C(C(c4ccccc4)=C/3c3ccccc3)/C(c3ccc(C#N)cc3)=c3\[nH]/c(c(-c4ccccc4)c3-c3ccccc3)=C(/c3ccc(C#N)cc3)C3=N/C(=C(/c4ccc(C#N)cc4)c4[nH]c2c(-c2ccccc2)c4-c2ccccc2)C(c2ccccc2)=C3c2ccccc2)cc1
fluorescence lifetime (in ClCCl): 0.416 ns

SMILES: CCC1=C(C)C2=C(C)c3c(I)c(I)cn3[B-](F)(F)[N+]2=C1C
fluorescence lifetime (in C1CCCCC1): 0.259 ns
fluorescence lifetime (in CC(C)=O): 0.127 ns
fluorescence lifetime (in CCO): 0.125 ns
fluorescence lifetime (in CCOC(C)=O): 0.16 ns
fluorescence lifetime (in CO): 0.122 ns
fluorescence lifetime (in OCC(F)(F)F): 0.147 ns

SMILES: Oc1ccccc1
fluorescence lifetime (in C1CCCCC1): 2.5 ns

SMILES: CC(C)c1cc(C(C)C)c(B2c3ccccc3Oc3cc(N4c5ccccc5C(C)(C)c5ccccc54)ccc32)c(C(C)C)c1
fluorescence lifetime (in Cc1ccccc1): 33 ns

SMILES: CN1CCN(CCCN2c3ccccc3Sc3ccc(Cl)cc32)CC1
fluorescence lifetime (in CC#N): 0.91 ns
fluorescence lifetime (in CO): 0.89 ns

SMILES: CCOC(=O)C1=CN(c2ccccc2)C=CC1c1ccccc1 (stereo unspecified)
fluorescence lifetime (in C1CCOC1): 7.14 ns
fluorescence lifetime (in CO): 7.55 ns

SMILES: CCC1(CC)c2ccccc2-c2c1c1c(c3c2C(CC)(CC)c2cc(/C=C/c4cccs4)ccc2-3)C(CC)(CC)c2cc(/C=C/c3cccs3)ccc2-1
fluorescence lifetime (in C1CCOC1): 1.5 ns

SMILES: c1ccc(-[c+]2c3ccccc3sc3ccccc32)cc1
fluorescence lifetime (in CC#N): 1 ns

SMILES: CC(C)(C)c1ccc2c(c1)B1c3cc(C(C)(C)C)ccc3Oc3cc(-n4c5ccccc5c5c6c(c7ccccc7n6-c6ccccc6)c6c(c7ccccc7n6-c6ccccc6)c54)cc(c31)O2
fluorescence lifetime (in Cc1ccccc1): 19.6 ns

SMILES: C1C[C@H]2CC[C@@H]1N=N2
fluorescence lifetime (in CC#N): 434 ns

SMILES: O=c1[nH]cc(F)c(=O)[nH]1
fluorescence lifetime (in CC#N): 0.0004 ns

SMILES: N#CC1=c2c3cccc4cccc(c43)n2[B-](F)(F)[n+]2ccccc21
fluorescence lifetime (in ClCCl): 8.7 ns

SMILES: Nc1ccccc1C(=O)O
fluorescence lifetime (in C1CCCCC1): 5.7 ns
fluorescence lifetime (in CC#N): 6.9 ns
fluorescence lifetime (in CCO): 7.6 ns
fluorescence lifetime (in CS(C)=O): 8.7 ns
fluorescence lifetime (in O): 8.6 ns and 8.7 ns
fluorescence lifetime (in OCC(F)(F)F): 5.4 ns
fluorescence lifetime (in c1ccccc1): 6.3 ns

SMILES: CC1(C)c2ccccc2N(c2ccc(-c3ncccn3)cc2)c2ccccc21
fluorescence lifetime [1]: 11 ns

SMILES: Cc1nn(-c2ccccc2)c(C2=NN(c3ccc(Br)cc3)[C@@H](c3ccccc3)[C@@H]2c2ccccc2)c1C#N
fluorescence lifetime (in C1CCCCC1): 4.73 ns
fluorescence lifetime (in C1CCOC1): 5.04 ns
fluorescence lifetime (in C1COCCO1): 5.21 ns
fluorescence lifetime (in CC#N): 5.05 ns
fluorescence lifetime (in CCCCCCC): 4.64 ns
fluorescence lifetime (in CCO): 4.53 ns
fluorescence lifetime (in CN(C)C=O): 4.95 ns
fluorescence lifetime (in CO): 3.74 ns
fluorescence lifetime (in O): 2.6 ns
fluorescence lifetime (in OCCO): 3.59 ns
